Measured values from patent US20060079453A1, “Hla binding peptides and their uses” (priority 2002, published 2006).
“And” between values parts separate entries of the source, which are not always exact repeats. Identical values can stand only once. Like-named read-outs stand apart in the source and are kept apart here. No end group written: not given here.

Legend:
H-2 Db = H-2 Db (Mus musculus, UniProt P01899); assay: biochemical; format: binding, murine
HLA-A*2902 = HLA-A*2902 (Homo sapiens, UniProt P04439, A270S/D101N/D185E/E176V/E277Q/E87Q/F33T/G231S/H175R/I121M/I218V/I322F/K168Q/L300P/L318F/M331R/P208A/P217A/Q86L/T323A/T345S/V100A/V358M); assay: MHC molecular binding / Capture assay, IC50: A*2902
HLA-A*3002 = HLA-A*3002 (Homo sapiens, UniProt P04439, D101N/D140H/D185E/E176R/F33S/G80R/H175R/K168Q/Q94H/R138E/R41S/V100E); assay: biochemical; format: binding
HLA-A*0101 = HLA-A*0101 (Homo sapiens, UniProt P04439, A114D/A174V/A182V/D101N/D185E/E176A/E190D/L180R/Q94H/R68K/S129P/T187R/V100A/V91M/W191G); assay: biochemical; format: binding; conditions: Binding affinity to A*0101 (expressed as an IC50)
HLA-A*2301 = HLA-A*2301 (Homo sapiens, UniProt P04439, D101N/D140Y/D185E/E176V/E190D/F33S/G103R/G107R/H175R/I119L/I121M/I306V/K168Q/K335N/L105A/L300P/N151K/N90K/P307H/Q86E/Q94H/R106L/R138H/R89G/T104I/T345S/V100E/W191G/Y123F); assay: biochemical; format: binding
HLA-A*2402 = HLA-A*2402 (Homo sapiens, UniProt P04439, D101N/D140Y/D185E/E176V/E190D/F33S/G103R/G107R/I119L/I121M/I306V/K335N/L105A/L180Q/L300P/N151K/N90K/Q86E/Q94H/R106L/R138H/R89G/T104I/T345S/V100E/W191G/Y123F); assay: MHC molecular binding / Capture assay, IC50: A*2402
[1] = Binding affinity to A*2902 (expressed as an IC50)
[2] = Binding affinity to A*3002 (expressed as an IC50)

Chain of H-2 Db (P61769 21-119): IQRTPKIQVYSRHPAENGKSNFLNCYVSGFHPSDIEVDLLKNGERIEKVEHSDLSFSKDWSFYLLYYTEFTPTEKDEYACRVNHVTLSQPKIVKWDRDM
Chain of H-2 Db (P01899 25-362): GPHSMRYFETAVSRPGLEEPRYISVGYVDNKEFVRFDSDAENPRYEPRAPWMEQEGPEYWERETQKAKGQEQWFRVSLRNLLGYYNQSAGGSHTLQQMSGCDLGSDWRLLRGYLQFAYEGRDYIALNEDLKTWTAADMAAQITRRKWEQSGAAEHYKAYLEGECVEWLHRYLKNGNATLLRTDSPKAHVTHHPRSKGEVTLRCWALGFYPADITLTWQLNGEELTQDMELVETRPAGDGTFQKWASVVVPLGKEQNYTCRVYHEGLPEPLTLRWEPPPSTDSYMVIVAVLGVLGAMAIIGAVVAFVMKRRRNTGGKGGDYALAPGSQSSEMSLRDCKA

SFYRNLLWL
IC50 (H-2 Db; Db): 46 nM and 304 nM

RMIQNSLTI
IC50 (H-2 Db; Db): 4.6 nM

CMANNSHHYI
IC50 (H-2 Db; Db): 220 nM

VSSIFISFY
IC50 (HLA-A*2902; [1]): 1800 nM | IC50 (HLA-A*3002; [2]): 55 nM | IC50 (HLA-A*0101): 144 nM

CC[C@H](C)[C@H](NC(=O)[C@H](Cc1ccccc1)NC(=O)[C@H](CCC(N)=O)NC(=O)CNC(=O)[C@H](CC(N)=O)NC(=O)[C@H](CCC(N)=O)NC(=O)[C@@H]1CCCN1C(=O)[C@H](CCC(N)=O)NC(=O)[C@@H](N)Cc1ccccc1)C(=O)N[C@@H](Cc1c[nH]cn1)C(=O)N[C@@H](Cc1ccccc1)C(=O)N[C@@H](Cc1ccc(O)cc1)C(=O)O
IC50 (H-2 Db; Db): 280 nM

FTDLRIVY
IC50 (HLA-A*2902; [1]): 813 nM | IC50 (HLA-A*3002; [2]): 8060 nM | IC50 (HLA-A*0101): 26 nM

KVPRNQDWL
IC50 (H-2 Db; Db): 38 nM

TGIGNQNII
IC50 (H-2 Db; read-out: Db): 13 nM

RTETPTLQDY
IC50 (HLA-A*2902): 1990 nM | IC50 (HLA-A*0101): 11 nM and 40 nM

STVKHHMY
IC50 (HLA-A*2902): 1760 nM | IC50 (HLA-A*3002): 68 nM | IC50 (HLA-A*0101): 8130 nM

YTDGPGIRY
IC50 (HLA-A*2902): 562 nM | IC50 (HLA-A*3002): 7910 nM | IC50 (HLA-A*0101): 11 nM

CC(C)C[C@H](NC(=O)CNC(=O)[C@@H](NC(=O)[C@H](CC(N)=O)NC(=O)[C@@H](NC(=O)[C@H](CC(C)C)NC(=O)[C@H](CCCCN)NC(=O)[C@H](CCC(=O)O)NC(=O)[C@H](CC(C)C)NC(=O)[C@@H](N)[C@@H](C)O)[C@@H](C)O)[C@@H](C)O)C(=O)N[C@@H](Cc1ccc(O)cc1)C(=O)O
IC50 (HLA-A*2902): 991 nM | IC50 (HLA-A*2902; [1]): 5500 nM | IC50 (HLA-A*3002): 92 nM | IC50 (HLA-A*0101): 77 nM and 23 nM

CC[C@H](C)[C@H](NC(=O)[C@@H](NC(=O)[C@@H]1CCCN1C(=O)[C@H](Cc1c[nH]cn1)NC(=O)[C@H](CO)NC(=O)[C@H](Cc1ccc(O)cc1)NC(=O)[C@@H](N)CC(C)C)[C@@H](C)CC)C(=O)N[C@@H](CC(C)C)C(=O)NCC(=O)N[C@@H](Cc1ccccc1)C(=O)O
IC50 (HLA-A*2301): 5.4 nM | IC50 (HLA-A*2402): 2.6 nM | IC50 (HLA-A*0101): 3170 nM

RTDILDLWVY
IC50 (HLA-A*2902): 13400 nM | IC50 (HLA-A*3002): 360 nM | IC50 (HLA-A*0101): 85 nM

YSDVSEFRWY
IC50 (HLA-A*2902): 1840 nM | IC50 (HLA-A*0101): 3.9 nM

YSDVRKYRYY
IC50 (HLA-A*2902): 849 nM | IC50 (HLA-A*3002): 794 nM | IC50 (HLA-A*0101): 19 nM

RTAKQHTCY
IC50 (HLA-A*2902): 130000 nM | IC50 (HLA-A*3002): 346 nM | IC50 (HLA-A*0101): 5650 nM

CC(C)C[C@H](NC(=O)[C@@H](NC(=O)[C@@H](N)CCCCN)[C@@H](C)O)C(=O)N[C@@H](Cc1ccc(O)cc1)C(=O)N[C@@H](CCC(N)=O)C(=O)N[C@@H](CO)C(=O)N[C@@H](CC(N)=O)C(=O)N1CCC[C@H]1C(=O)N[C@@H](Cc1ccc(O)cc1)C(=O)O
IC50 (HLA-A*2902; [1]): 1700 nM | IC50 (HLA-A*3002; [2]): 35 nM | IC50 (HLA-A*0101): 6910 nM

LIENELMNY
IC50 (HLA-A*2902; [1]): 3940 nM | IC50 (HLA-A*0101): 412 nM

TLEKGPGPGLY
IC50 (HLA-A*2902; [1]): 2040 nM | IC50 (HLA-A*3002; [2]): 40 nM | IC50 (HLA-A*0101): 13 nM

QNADKNFLY
IC50 (HLA-A*2902; [1]): 24 nM | IC50 (HLA-A*3002; [2]): 663 nM | IC50 (HLA-A*0101): 3810 nM

EYDHYCYSLY
IC50 (HLA-A*2902): 799 nM | IC50 (HLA-A*3002): 77 nM | IC50 (HLA-A*0101): 110000 nM

CC[C@H](C)[C@H](N)C(=O)N[C@@H](CO)C(=O)N[C@@H](CCC(=O)O)C(=O)N[C@@H](Cc1ccc(O)cc1)C(=O)N[C@@H](CCCNC(=N)N)C(=O)N[C@@H](Cc1c[nH]cn1)C(=O)N[C@@H](Cc1ccc(O)cc1)C(=O)N[C@@H](CC(N)=O)C(=O)N[C@@H](Cc1ccc(O)cc1)C(=O)O
IC50 (HLA-A*2301): > 23600 nM | IC50 (HLA-A*3002; [2]): 32 nM | IC50 (HLA-A*0101): 25 nM

CC[C@H](C)[C@H](NC(=O)[C@H](CCCCN)NC(=O)[C@H](CCC(=O)O)NC(=O)[C@H](CC(C)C)NC(=O)[C@@H](N)[C@@H](C)O)C(=O)N[C@H](C(=O)N[C@@H](CC(N)=O)C(=O)N[C@H](C(=O)N[C@@H](CCC(=O)O)C(=O)N[C@@H](CC(C)C)C(=O)N[C@@H](Cc1ccc(O)cc1)C(=O)O)[C@@H](C)O)[C@@H](C)O
IC50 (HLA-A*2902; [1]): 8400 nM | IC50 (HLA-A*3002; [2]): 3900 nM | IC50 (HLA-A*0101): 17 nM

ITDIILECVY
IC50 (HLA-A*2902): 7660 nM | IC50 (HLA-A*3002): 505 nM | IC50 (HLA-A*0101): 1.8 nM

TLGPGPGTGLY
IC50 (HLA-A*2902; [1]): 1320 nM | IC50 (HLA-A*3002; [2]): 7.4 nM | IC50 (HLA-A*0101): 350 nM

CC(C)C[C@H](NC(=O)[C@H](CC(=O)O)NC(=O)[C@H](CCC(N)=O)NC(=O)[C@@H](N)[C@@H](C)O)C(=O)N[C@H](C(=O)N[C@@H](CCC(N)=O)C(=O)N[C@@H](CCC(=O)O)C(=O)N[C@@H](CCCCN)C(=O)N[C@@H](Cc1ccc(O)cc1)C(=O)O)C(C)C
IC50 (HLA-A*2902): 33300 nM | IC50 (HLA-A*3002): 3800 nM | IC50 (HLA-A*0101): 57 nM

TLEKLGPGPGY
IC50 (HLA-A*2902; [1]): 4470 nM | IC50 (HLA-A*3002; [2]): 1960 nM | IC50 (HLA-A*0101): 269 nM

YSDISEYRHY
IC50 (HLA-A*2902): 1350 nM | IC50 (HLA-A*0101): 3.8 nM

FTSKVRKYRY
IC50 (HLA-A*2902): 6680 nM | IC50 (HLA-A*3002): 52 nM | IC50 (HLA-A*0101): 64 nM and 37 nM

C[C@H](NC(=O)[C@H](CCC(N)=O)NC(=O)[C@@H](N)CCCNC(=N)N)C(=O)N[C@@H](CCCCN)C(=O)N[C@@H](CCC(N)=O)C(=O)N[C@@H](Cc1c[nH]cn1)C(=O)N[C@H](C(=O)N[C@@H](CS)C(=O)N[C@@H](Cc1ccc(O)cc1)C(=O)O)[C@@H](C)O
IC50 (HLA-A*2902; [1]): 155000 nM | IC50 (HLA-A*3002; [2]): 108 nM | IC50 (HLA-A*0101): > 135000 nM

KTRYYDYSVY
IC50 (HLA-A*2902): 87800 nM | IC50 (HLA-A*3002): 0.71 nM | IC50 (HLA-A*0101): 2960 nM
